# Laboratory results as given in publication PMC6407579, “New flavonoid – N,N-dibenzyl(N-methyl)amine hybrids: Multi-target-directed agents for Alzheimer´s disease endowed with neurogenic properties” (Journal of Enzyme Inhibition and Medicinal Chemistry, 2019).
# Values joined by “and” are separate entries in the source; they are usually repeats but may differ in a detail not shown here. Equal values may be shown once.
# How the values were obtained:
# [1] = molecular target: T1, human recombinant AChE (hAChE) (Homo sapiens, UniProt P22303); test: biochemical; details: mean ± SEM (n = 3); read-out: hAChE IC50
# T1 construct: purchased Sigma Chemical Co
# T1 sequence (P22303 32-614): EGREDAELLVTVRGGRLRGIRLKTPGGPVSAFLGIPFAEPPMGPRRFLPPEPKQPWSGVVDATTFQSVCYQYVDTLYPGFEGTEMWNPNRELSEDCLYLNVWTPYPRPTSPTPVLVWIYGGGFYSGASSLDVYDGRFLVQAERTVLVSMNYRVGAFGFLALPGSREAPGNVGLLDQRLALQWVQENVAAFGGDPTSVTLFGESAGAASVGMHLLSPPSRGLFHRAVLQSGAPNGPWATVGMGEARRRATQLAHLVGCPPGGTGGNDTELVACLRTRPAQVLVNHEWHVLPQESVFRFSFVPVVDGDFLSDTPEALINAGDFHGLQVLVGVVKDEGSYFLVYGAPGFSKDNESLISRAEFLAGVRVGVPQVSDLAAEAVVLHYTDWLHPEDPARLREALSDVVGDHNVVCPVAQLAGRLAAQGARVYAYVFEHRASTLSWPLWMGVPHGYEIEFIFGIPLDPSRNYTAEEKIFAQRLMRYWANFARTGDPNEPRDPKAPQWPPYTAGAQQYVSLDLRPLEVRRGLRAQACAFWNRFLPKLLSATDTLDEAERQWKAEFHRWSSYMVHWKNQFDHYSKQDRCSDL
# Description: The Ellman method was followed, using human recombinant AChE and BuChE from human serum. The assay solution consisted of 0.1 M phosphate buffer pH 8.0, 400 μM 5,5´-dithiobis(2-nitrobenzoic acid) (DTNB, Ellman’s reagent), 0.05 U/mL hAChE (Sigma Chemical Co.) or 0.024 U/mL hBuChE (Sigma Chemical Co.), and 800 μM acetylthiocholine iodide, or 500 μM butyrylthiocholine as the substrate of the enzymatic reaction, respectively. The compounds tested were added to the assay solution and preincubated with the enzyme for 5 min at 30 °C. After that period, the substrate was added.
# recombinant hMAO-A = molecular target: T2, recombinant hMAO-A (Homo sapiens, UniProt P21397); test: biochemical; type: biochemical
# T2 sequence (P21397 1-527): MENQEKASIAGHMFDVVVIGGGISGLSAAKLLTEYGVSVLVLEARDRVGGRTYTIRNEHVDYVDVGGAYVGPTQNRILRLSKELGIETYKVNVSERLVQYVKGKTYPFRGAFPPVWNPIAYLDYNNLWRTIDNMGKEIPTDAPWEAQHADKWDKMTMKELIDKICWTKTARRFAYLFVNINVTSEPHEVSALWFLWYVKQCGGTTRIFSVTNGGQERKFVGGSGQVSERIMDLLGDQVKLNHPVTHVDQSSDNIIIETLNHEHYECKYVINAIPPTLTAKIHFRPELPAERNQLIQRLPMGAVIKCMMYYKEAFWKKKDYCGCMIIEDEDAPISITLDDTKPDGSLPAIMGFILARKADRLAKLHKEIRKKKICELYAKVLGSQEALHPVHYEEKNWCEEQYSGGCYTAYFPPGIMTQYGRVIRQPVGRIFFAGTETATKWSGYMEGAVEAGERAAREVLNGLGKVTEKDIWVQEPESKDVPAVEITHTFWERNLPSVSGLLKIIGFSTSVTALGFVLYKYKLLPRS
# recombinant hMAO-B = molecular target: T3, recombinant hMAO-B (Homo sapiens, UniProt P27338); test: biochemical; type: biochemical; details: mean ± SEM (n = 3); 100 µM highest concentration tested
# T3 sequence (P27338 1-520): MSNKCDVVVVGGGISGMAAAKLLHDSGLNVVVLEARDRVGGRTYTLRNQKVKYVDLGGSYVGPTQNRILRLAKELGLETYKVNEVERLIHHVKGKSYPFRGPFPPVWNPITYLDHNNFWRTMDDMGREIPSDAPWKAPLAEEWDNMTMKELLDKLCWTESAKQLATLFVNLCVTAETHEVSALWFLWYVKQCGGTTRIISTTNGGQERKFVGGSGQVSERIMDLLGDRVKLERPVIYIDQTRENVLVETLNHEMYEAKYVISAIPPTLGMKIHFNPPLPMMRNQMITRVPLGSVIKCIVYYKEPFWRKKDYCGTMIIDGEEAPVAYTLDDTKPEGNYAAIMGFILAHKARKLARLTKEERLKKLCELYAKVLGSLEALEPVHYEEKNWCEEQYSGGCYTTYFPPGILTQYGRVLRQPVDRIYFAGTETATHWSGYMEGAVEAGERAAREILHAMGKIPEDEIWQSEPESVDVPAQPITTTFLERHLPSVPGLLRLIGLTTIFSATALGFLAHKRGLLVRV
# [2] = Oxygen radical absorbance capacity assay (ORAC); details: trolox taken as 1.0
# [3] = In vitro blood-brain barrier permeation assay (PAMPA-BBB); type: in vitro ADME; details: pig, pH 7.4, porcine brain lipid, PBS:ethanol (70:30), 25 °C, read-out: PAMPA-BBB permeability in the CNS (Pe)
# Description: Prediction of the brain penetration was evaluated using a parallel artificial membrane permeation assay (PAMPA-BBB), in a similar manner as previously described[36]^,[46]^,[51–53]. Pipetting was performed with a semi-automatic pipettor (CyBi®-SELMA) and UV reading with a microplate spectrophotometer (Multiskan Spectrum, Thermo Electron Co.). Commercial drugs, phosphate buffered saline solution at pH 7.4 (PBS), and dodecane were purchased from Sigma, Aldrich, Acros, and Fluka. Millex filter units (PVDF membrane, diameter 25 mm, pore size 0.45 μm) were acquired from Millipore. The porcine brain lipid (PBL) was obtained from Avanti Polar Lipids. The donor microplate was a 96-well filter plate (PVDF membrane, pore size 0.45 μm) and the acceptor microplate was an indented 96-well plate, both from Millipore. The acceptor 96-well microplate was filled with 200 μL of PBS: ethanol (70:30) and the filter surface of the donor microplate was impregnated with 5 μL of porcine brain lipid (PBL) in dodecane (20 mg mL^−1). Compounds were dissolved in PBS: ethanol (70:30) at 100 μg mL^−1, filtered through a Millex filter, and then added to the donor wells (200 μL). The donor filter plate was carefully put on the acceptor plate to form a sandwich, which was left undisturbed for 120 min at 25 °C. After incubation, the donor plate is carefully removed and the concentration of compounds in the acceptor wells was determined by UV-Vis spectroscopy. Every sample is analysed at five wavelengths, in four wells and at least in three independent runs, and the results are given as the mean ± standard deviation. In each experiment, 11 quality control standards of known BBB permeability were included to validate and normalise the analysis set.
# To check if new compounds could be able to reach their CNS-targets, we used the in vitro parallel artificial membrane permeability assay for the blood-brain barrier (PAMPA-BBB) described by Di et al.[87], and partially modified by us for testing molecules with limited water-solubility[36]^,[46]^,[51–53]. The passive CNS-permeation of new compounds 1–13 through a lipid extract of porcine brain was measured at room temperature. In each experiment, 11 commercial drugs of known brain permeability were also tested and their permeability values normalised to the reported PAMPA-BBB data. […].
# σ1R = molecular target: T4, σ1R (Cavia porcellus, UniProt Q60492); test: Sigma-1 receptor binding, [3H]-(+)-pentazocine competition; design: species or system guinea pig
# T4 construct: the thawed membrane preparation of guinea pig brain cortex; from tissue; host or cells: guinea pig brain cortex membranes
# T4 sequence (Q60492 whole entry): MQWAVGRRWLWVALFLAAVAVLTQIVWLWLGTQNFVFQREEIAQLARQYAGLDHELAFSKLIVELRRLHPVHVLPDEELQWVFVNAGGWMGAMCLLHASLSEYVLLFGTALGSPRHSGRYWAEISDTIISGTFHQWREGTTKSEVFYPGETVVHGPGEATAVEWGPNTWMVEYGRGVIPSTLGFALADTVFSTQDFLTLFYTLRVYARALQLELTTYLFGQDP
# σ2R = molecular target: T5, σ2R (Rattus norvegicus, UniProt Q5U3Y7); test: Sigma-2 receptor binding, [3H]-DTG competition
# T5 construct: 150 µg of rat liver homogenate were incubated; from tissue; host or cells: rat liver homogenate
# T5 sequence (Q5U3Y7 1-176): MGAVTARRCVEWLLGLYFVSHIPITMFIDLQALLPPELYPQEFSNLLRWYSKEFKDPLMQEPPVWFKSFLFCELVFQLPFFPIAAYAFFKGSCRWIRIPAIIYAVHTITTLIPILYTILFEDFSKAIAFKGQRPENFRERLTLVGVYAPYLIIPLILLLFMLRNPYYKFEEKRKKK
# [4] = test system: Aβ levels in cerebrospinal fluid; design: method as in PMID 29719179; details: cited from earlier work
SMILES,IC50 [1] [µM],preference for hMAO-A compared to hMAO-B (recombinant hMAO-A),"IC50 (recombinant hMAO-A; mean ± SEM (n = 3), 100 µM highest concentration tested) [µM]",IC50 (recombinant hMAO-B) [µM],"ORAC, trolox equivalents [2]","Papp at 120 min, 100 μg mL^−1 [3] [×10⁻⁶ cm/s]",Ki (σ1R) [µM],Selectivity vs. σ1R (Kiσ2R/Kiσ1R) (σ1R),Ki (σ2R) [µM],reduction of Aβ levels in cerebrospinal fluid [4]
"CN(Cc1ccccc1)Cc1ccc(NC(=O)c2cc(=O)c3c(O)cc(O)cc3o2)cc1 [Compound 4, N-(4-((Benzyl(methyl)amino)methyl)phenyl)-5,7-dihydroxy-4-oxo-4H-chromene-2-carboxamide]",1.9 ± 0.6,at least 4.4 times,22.8 ± 1.5,> 100,1.2 mmol of trolox/mmol of tested compound and 1.2 ± 0.1 mmol of trolox/mmol of tested compound,14.7 ± 1.2,0.51 ± 0.07,> 5.9,> 3,–
CN1C(=N)N[C@](C)(c2cc(NC(=O)c3ccc(F)cn3)ccc2F)CS1(=O)=O [verubecestat],–,–,–,–,–,–,–,–,–,up to 81%
